Experiments:
[1] = test system: 5/6 nephrectomy rat model; assay: Functional and structural renal dysfunction in 5/6 nephrectomized rats; assay type: in vivo; conditions: 4 weeks; for End organ injury marker concentration in the urine: hFABP / End organ injury marker concentration in the urine: hFABP per creatinine: ELISA; for Kidney injury marker-1 [gene expression] / Lipocalin-2 [gene expression] / Osteopontin [gene expression]: renal cortex
Excerpt: (§1) B-3. Effects of Partial A1 Agonists on Renal and Cardiac Function in 5/6 Nephrectomized Rats (Example 1 for Chronic Kidney Disorder)
(§2) 5/6 nephrectomy in the rat, in which one kidney and the renal cortex of the second kidney are surgically removed (=5/6 of functional kidney tissue) is an established animal model for interstitial renal fibrosis and chronic renal insufficiency [C. Fleck et al., “Suitability of 5/6 nephrectomy (5/6NX) for the induction of interstitial renal fibrosis in rats Influence of sex, strain, and surgical procedure”, Exp. Tox. Pathology 2006, 57, 195-205]. The model is characterized by progressive proteinuria, disturbed tubular electrolyte transport, a reduced glomerular filtration rate, an increase in urinary output, interstitial fibrosis with reactively occurring lymphocyte infiltrates, glomerulosclerosis and tubular atrophy. The level of proteinuria is a specific index of the renal function prognosis: the higher the proteinuria, the greater is the functional and structural kidney injury and therefore progression of chronic to terminal renal insufficiency (uraemia). During monitoring of therapy, e.g. with the ACE inhibitor enalapril, the course of proteinuria provides information on the functional and structural response to the therapy and thus on the renal function prognosis. As a result of the renal insufficiency and accumulation of umemic toxins, in the animals there is secondary development of a umemic cardiomyopathy, depending on the severity associated with hypertension, increased heart rate, reduced parasympathetic tone, myocardial, left-ventricular hypertrophy and fibrosis, diastolic dysfunction and an increased prevalence of arrhythmias [Svilerova et al. 2010 Physiol Res 59: S81-S88).
(§3) Procedure: male Wistar:WU rats (210-250 g) from Charles River had the left kidney and the renal cortex of the right kidney removed (=SNX) in one session; sham-operated rats served as control group (=SOP). The following groups, each with 12 rats per group, were investigated:
(§4) Group 2 SNX+placebo (60 g glycerol+100 g water+969 g PEG-400)
(§5) Group 3 SNX+10 mg/kg body weight/day enalapril (reference therapy, in the drinking water)
(§6) Group 4 SNX+0.1 mg/kg body weight/day partial A1 agonist EXAMPLE 1, p.o. in placebo
(§7) Group 5 SNX+1.0 mg/kg body weight/day partial A1 agonist EXAMPLE 1, p.o. in placebo
(§8) Group 6 SNX+0.3 mg/kg body weight/day partial A1 agonist EXAMPLE 4, p.o. in placebo
(§9) Group 7 SNX+3.0 mg/kg body weight/day partial A1 agonist EXAMPLE 4, p.o. in placebo
(§10) Three weeks after 5/6 nephrectomy, the rats developed manifest proteinuria, from this time point the rats were treated for a further four weeks corresponding to the groups stated above. At the end of the protocol, the following samples were obtained/measurements were carried out: eight-hour urine collection with determination of the concentration of hFABP in the urine by ELISA (Rat/Mouse h-FABP ELISA, Hycultbiotech), as marker for end organ damage, invasive measurement of the isoprenaline-induced increase (cumulatively 12.5 ng-250 ng/kg isoprenaline, i.v.) in systolic and diastolic left ventricular function, and TaqMan analyses of renal injury markers in the renal cortex.

[2] = test system: unilaterally nephrectomized SHR; assay: Functional and structural renal dysfunction in unilaterally nephrectomized spontaneously hypertensive rats; assay type: in vivo, rat; conditions: Group 4: SNX + 1.0 mg/kg body weight/day p.o., 4 weeks
Excerpt: (§11) B-4. Effects of Partial A1 Agonists on Renal and Cardiac Function in Unilaterally Nephrectomized and Spontaneously Hypertensive Rats (Example 2 for Chronic Kidney Disorders)
(§12) Unilaterally nephrectomized, spontaneously hypertensive rats (SHR) are an established animal model for investigating the development and progression of hypertensive damage of the glomeruli in the remaining kidney [H. Kinuno et al., “Effects of uninephrectomy on renal structural properties in spontaneously hypertensive rats”, Clin and Exp Pharmacol and Physiol 2005, 32, 173-178]. […] Furthermore, renal excretion of substances usually eliminated in the urine, such as creatinine and urea, is reduced and the electrolyte metabolism is disturbed, the latter being associated with volume retention.
(§13) Procedure: male SHR rats (180-220 g) from Taconic had the left kidney removed in one session (=UNX). Normotensive Wistar Kyoto rats (WKY) from Taconic served as control. The following groups, each with 12 rats per group, were investigated:
(§14) Group 2 UNX+placebo (60 g glycerol+100 g water+969 g PEG-400)
(§15) Group 3 UNX+10 mg/kg body weight/day enalapril (reference therapy, in the drinking water)
(§16) Group 4 SNX+1.0 mg/kg body weight/day partial A1 EXAMPLE 1, p.o. in placebo
(§17) Group 5 SNX+3.0 mg/kg body weight/day partial A1 EXAMPLE 4, p.o. in placebo
(§18) Three weeks after unilateral nephrectomy, the SHRs developed manifest hypertensive damage of the glomeruli in the remaining kidney, from this time point on the rats were treated for a further four weeks corresponding to the groups given above. At the end of the protocol, the following samples were obtained/measurements were carried out: eight-hour urine collection, invasive measurement of systolic and diastolic left ventricular function, and TaqMan analyses of renal injury markers in the renal cortex.

[3] = test system: 5/6 nephrectomy rat model; assay: Left-ventricular diastolic dysfunction under isoprenaline infusion in 5/6 nephrectomized rats; assay type: in vivo; conditions: 4 weeks
Excerpt: as §1, §2, §3, §4, §5, §6, §7, §8, §9, §10

[4] = test system: unilaterally nephrectomized SHR; assay: Functional and structural myocardial dysfunction in unilaterally nephrectomized spontaneously hypertensive rats; assay type: in vivo, rat; conditions: Group 4: SNX + 1.0 mg/kg body weight/day p.o., 4 weeks
Excerpt: as §11, §12, §13, §14, §15, §16, §17, §18

[5] = Group 4: SNX + 0.1 mg/kg body weight/day p.o.
[6] = Group 5: SNX + 1.0 mg/kg body weight/day p.o.

N#Cc1c(N)nc(SCc2csc(-c3ccc(Cl)cc3)n2)c(C#N)c1-c1ccc(OCCO)cc1 [EXAMPLE 1, 2-Amino-6-({[2-(4-chlorophenyl)-1,3-thiazol-4-yl]methyl}sulphanyl)-4-[4-(2-hydroxyethoxy)phenyl]pyridine-3,5-dicarbonitrile]
P-creatinine [1, 5]: 66 ± 1 µmol/L | P-urea [1, 5]: 11 ± 0.5 mmol/L | U-creatinine [1, 5]: 2.4 ± 0.3 μmol/ml urine/kg BW/h | U-protein [1, 5]: 1.07 ± 0.28 μmol/ml urine/kg BW/h | U-sodium [1, 5]: 18 ± 3 μmol/ml urine/kg BW/h | U-urea [1, 5]: 260 ± 31 μmol/ml urine/kg BW/h | Urine volume [1, 5]: 2.2 ± 0.1 ml/kg BW/h | End organ injury marker concentration in the urine: hFABP [1, 5]: 1088 ± 159 pg hFABP/ml urine/h | End organ injury marker concentration in the urine: hFABP per creatinine [1, 5]: 194 ± 36 pg hFABP/μmol creatinine | Kidney injury marker-1 [gene expression] [1, 5]: 60 ± 17 rel. expression | Lipocalin-2 [gene expression] [1, 5]: 307 ± 51 rel. expression | Osteopontin [gene expression] [1, 5]: 6008 ± 1209 rel. expression | P-creatinine [1, 6]: 63 ± 1 µmol/L | P-urea [1, 6]: 11 ± 0.3 mmol/L | U-creatinine [1, 6]: 2.3 ± 0.3 μmol/ml urine/kg BW/h | U-protein [1, 6]: 0.75 ± 0.14 μmol/ml urine/kg BW/h | U-sodium [1, 6]: 31 ± 3 μmol/ml urine/kg BW/h | U-urea [1, 6]: 264 ± 35 μmol/ml urine/kg BW/h | Urine volume [1, 6]: 2.0 ± 0.2 ml/kg BW/h | End organ injury marker concentration in the urine: hFABP [1, 6]: 1136 ± 229 pg hFABP/ml urine/h | End organ injury marker concentration in the urine: hFABP per creatinine [1, 6]: 175 ± 39 pg hFABP/μmol creatinine | Kidney injury marker-1 [gene expression] [1, 6]: 62 ± 13 rel. expression | Lipocalin-2 [gene expression] [1, 6]: 313 ± 65 rel. expression | Osteopontin [gene expression] [1, 6]: 5476 ± 1131 rel. expression | P-creatinine [2]: 62 ± 1.1 mmol/L | P-urea [2]: 9.3 ± 0.4 mmol/L | U-creatinine [2]: 2.1 ± 0.4 μmol/ml urine/kg BW/h | U-protein [2]: 0.53 ± 0.10 μmol/ml urine/kg BW/h | U-sodium [2]: 37 ± 9 μmol/ml urine/kg BW/h | U-urea [2]: 186 ± 31 μmol/ml urine/kg BW/h | Urine volume [2]: 2.1 ± 0.2 ml/kg BW/h | CYR61 [gene expression] ([2]; renal cortex): 395 ± 47 rel. expression | Lipocalin-2 [gene expression] ([2]; renal cortex): 160 ± 24 rel. expression | left-ventricular pressure decrease as a function of time ([3]; isoprenaline 0 ng/kg body weight, Group 4: SNX + 0.1 mg/kg body weight/day p.o.): 6769 ± 206 mmHg/s | left-ventricular pressure decrease as a function of time ([3]; isoprenaline 0 ng/kg body weight, Group 5: SNX + 1.0 mg/kg body weight/day p.o.): 6516 ± 334 mmHg/s | left-ventricular pressure decrease as a function of time ([3]; isoprenaline 12.5 ng/kg body weight, Group 4: SNX + 0.1 mg/kg body weight/day p.o.): 7990 ± 208 mmHg/s | left-ventricular pressure decrease as a function of time ([3]; isoprenaline 12.5 ng/kg body weight, Group 5: SNX + 1.0 mg/kg body weight/day p.o.): 7126 ± 283 mmHg/s | left-ventricular pressure decrease as a function of time ([3]; isoprenaline 25 ng/kg body weight, Group 4: SNX + 0.1 mg/kg body weight/day p.o.): 8283 ± 222 mmHg/s | left-ventricular pressure decrease as a function of time ([3]; isoprenaline 25 ng/kg body weight, Group 5: SNX + 1.0 mg/kg body weight/day p.o.): 7309 ± 285 mmHg/s | left-ventricular pressure decrease as a function of time ([3]; isoprenaline 50 ng/kg body weight, Group 4: SNX + 0.1 mg/kg body weight/day p.o.): 8913 ± 282 mmHg/s | left-ventricular pressure decrease as a function of time ([3]; isoprenaline 50 ng/kg body weight, Group 5: SNX + 1.0 mg/kg body weight/day p.o.): 7990 ± 213 mmHg/s | left-ventricular pressure decrease as a function of time ([3]; isoprenaline 100 ng/kg body weight, Group 4: SNX + 0.1 mg/kg body weight/day p.o.): 9701 ± 300 mmHg/s | left-ventricular pressure decrease as a function of time ([3]; isoprenaline 100 ng/kg body weight, Group 5: SNX + 1.0 mg/kg body weight/day p.o.): 8722 ± 183 mmHg/s | left-ventricular pressure decrease as a function of time ([3]; isoprenaline 250 ng/kg body weight, Group 4: SNX + 0.1 mg/kg body weight/day p.o.): 9721 ± 307 mmHg/s | left-ventricular pressure decrease as a function of time ([3]; isoprenaline 250 ng/kg body weight, Group 5: SNX + 1.0 mg/kg body weight/day p.o.): 9028 ± 226 mmHg/s | Diastolic blood pressure [4]: 112 ± 6 mmHg | Heart rate [4]: 295 ± 11 beats/min | Left ventricular hypertrophy (LVS/RV ratio, mg/mg) [4]: 4.3 ± 0.2 mg/mg | Left-ventricular end-diastolic pressure [4]: 8.5 ± 1.3 mmHg | Left-ventricular pressure [4]: 169 ± 8 mmHg | Pressure decrease over time [4]: −10181 ± 523 mmHg/s | Pressure increase over time [4]: 7943 ± 512 mmHg/s | Systolic blood pressure [4]: 171 ± 8 mmHg

Reference: patent US20160311812A1, “ADENOSINE A1 AGONISTS AS MEDICAMENTS FOR KIDNEY DISORDERS” (BAYER PHARMA AKTIENGESELLSCHAFT, priority 2013, published 2016)
